The target of this experiment is Full length human TBK1 (Homo sapiens (Human), UniProt Q9UHD2). In words: Inhibition of TBK1 Enzyme (Example A). Type of experiment: biochemical. The conditions noted are these: -log(IC50), IC50 molar; 3 nM TBK1, 25 μM ATP, 60 min RT. The protocol: Full length human TBK1 with an N-terminal His-tag was cloned into the pFastBacl vector and was transfected into Sf9 cells. 72 hours later the virus was harvested and amplified through two additional rounds of infections. Then 400 mL of the resulting virus stock was used to infect 10 L of Sf9 cells at a density of 2×10^6 cells/mL. Cell pellets were harvested 48 hours post infection and were lysed by freeze-thaw, homogenization and sonication in binding buffer (25 mM Tris pH7.6, 1 M NaCl, 10 mM imidazole, 0.5 mM TCEP) plus 0.1% Triton X-100 and complete protease inhibitor cocktail. The lysate was spun and the supernatant was purified with a HisTrap FF crude and a Superdex 200 pg column.
Full length human TBK1, sequence (Q9UHD2 whole entry): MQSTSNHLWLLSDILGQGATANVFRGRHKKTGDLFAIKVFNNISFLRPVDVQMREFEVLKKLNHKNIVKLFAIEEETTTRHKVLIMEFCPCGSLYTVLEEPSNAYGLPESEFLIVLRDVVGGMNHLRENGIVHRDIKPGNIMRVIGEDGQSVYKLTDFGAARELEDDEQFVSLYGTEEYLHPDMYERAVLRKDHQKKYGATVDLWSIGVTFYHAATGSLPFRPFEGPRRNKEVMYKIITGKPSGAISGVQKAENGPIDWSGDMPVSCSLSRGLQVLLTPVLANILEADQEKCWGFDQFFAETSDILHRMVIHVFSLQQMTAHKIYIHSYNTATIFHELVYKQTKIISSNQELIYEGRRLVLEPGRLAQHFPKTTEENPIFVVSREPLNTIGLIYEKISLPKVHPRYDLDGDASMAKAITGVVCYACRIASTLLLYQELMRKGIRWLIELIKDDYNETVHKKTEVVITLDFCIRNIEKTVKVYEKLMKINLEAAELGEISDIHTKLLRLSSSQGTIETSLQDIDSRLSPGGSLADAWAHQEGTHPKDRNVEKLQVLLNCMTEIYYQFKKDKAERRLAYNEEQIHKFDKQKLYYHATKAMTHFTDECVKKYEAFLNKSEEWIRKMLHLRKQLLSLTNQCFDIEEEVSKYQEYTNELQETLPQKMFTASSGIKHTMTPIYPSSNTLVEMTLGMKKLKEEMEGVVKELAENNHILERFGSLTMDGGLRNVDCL
TBK1 inhibition is determined using a 384 well plate format in buffer containing 20 mM Hepes, pH 7.4, 10 mM MgCl2, 1 mM EDTA, 0.01% Brij-L23, 1 mM DTT. Each test compound is prepared in DMSO using 2.5-fold serial dilutions for 11 data points, which are added to the buffer so that each dilution contains 1% DMSO. To each well is added 2 μL of 1 μM 5FAM-DRHDSGLDSMKDE-NH2 (in buffer), 2 μL of diluted test compound (1% DMSO in buffer), and 5 μL of 3 nM TBK1 and 25 μM ATP (in buffer). The reaction mixture is incubated at RT for 60 min, and quenched by adding 20 mM Hepes, pH 7.4, 10 mM MgCl2, 1 mM EDTA, 0.01% Brij-L23, 1 mM DTT+25 mM EDTA. To quantify the fluorescent-labeled substrate and product following reaction, the test plate is loaded on a Caliper LC-3000, which measures percent of conversion by microfluidic-based separation. Corresponding IC50 values are calculated by non-linear curve fitting of the compound concentrations and percent of inhibition to the standard IC50 equation and reported as pIC50, i.e., −log(IC50), where IC50 is the molar concentration.
For the compound `C[C@@H](Nc1cc(-c2cnc(NC(=O)C3CC3)cn2)ccc1C#N)C(=O)N(C)C` [Example 2, (R)-N-(5-(4-cyano-3-((1-(dimethylamino)-1-oxopropan-2-yl)amino)phenyl)pyrazin-2-yl)cyclopropanecarboxamide], the “TBK1 Inhibition (pIC50)” value is reported as 7.1.
In the case of `CC(Nc1cc(-c2cnc(NC(=O)C3CC3)cn2)ccc1C#N)C(=O)N(C)C` (stereo not shown) [Example 3, N-(5-(4-cyano-3-((1-(dimethylamino)-1-oxopropan-2-yl)amino)phenyl)pyrazin-2-yl)cyclopropanecarboxamide], the “TBK1 Inhibition (pIC50)” value was 7.9.
Consider `CC1CC1C(=O)Nc1cnc(-c2ccc(C#N)c(NCC(=O)N(C)C)c2)cn1` (stereo not shown) [Example 4, N-(5-(4-cyano-3-((2-(dimethylamino)-2-oxoethyl)amino)phenyl)pyrazin-2-yl)-2-methylcyclopropanecarboxamide], for which the “TBK1 Inhibition (pIC50)” value stood at 7.1.
On to `CC(C)C(Nc1cc(-c2cnc(NC(=O)C3CC3)cn2)ccc1C#N)C(=O)N(C)C` (stereo not shown) [Example 5, N-(5-(4-cyano-3-((1-(dimethylamino)-3-methyl-1-oxobutan-2-yl)amino)phenyl)pyrazin-2-yl)cyclopropanecarboxamide], for which the “TBK1 Inhibition (pIC50)” value is reported as 7.3.
As for `CCC(Nc1cc(-c2cnc(NC(=O)C3CC3)cn2)ccc1C#N)C(=O)N(C)C` (stereo not shown) [Example 6, N-(5-(4-cyano-3-((1-(dimethylamino)-1-oxobutan-2-yl)amino)phenyl)pyrazin-2-yl)cyclopropanecarboxamide], the “TBK1 Inhibition (pIC50)” value was 8.1.
On to `COCC[C@H](Nc1cc(-c2cnc(NC(=O)C3CC3)cn2)ccc1C#N)C(=O)N(C)C` [Example 7, (S)-N-(5-(4-cyano-3-((1-(dimethylamino)-4-methoxy-1-oxobutan-2-yl)amino)phenyl)pyrazin-2-yl)cyclopropanecarboxamide], for which the “TBK1 Inhibition (pIC50)” value came to 8.2.
Regarding `CN(C)C(=O)C(CC(F)F)Nc1cc(-c2cnc(NC(=O)C3CC3)cn2)ccc1C#N` (stereo not shown) [Example 8, N-(5-(4-cyano-3-((1-(dimethylamino)-4,4-difluoro-1-oxobutan-2-yl)amino)phenyl)pyrazin-2-yl)cyclopropanecarboxamide], the “TBK1 Inhibition (pIC50)” value came to 8.1.
Turning to `C[C@H](Nc1cc(-c2cnc(NC(=O)C3CC3)cn2)ccc1C#N)C(=O)N1CCC1` [Example 9, (S)-N-(5-(3-((1-(azetidin-1-yl)-1-oxopropan-2-yl)amino)-4-cyanophenyl)pyrazin-2-yl)cyclopropanecarboxamide], the “TBK1 Inhibition (pIC50)” value was 6.7.
Turning to `C[C@H](Nc1cc(-c2cnc(NC(=O)C3CC3)cn2)ccc1C#N)C(=O)N1CCCC1` [Example 10, (S)-N-(5-(4-cyano-3-((1-oxo-1-(pyrrolidin-1-yl)propan-2-yl)amino)phenyl)pyrazin-2-yl)cyclopropanecarboxamide], the “TBK1 Inhibition (pIC50)” value worked out at 7.3.
The figure for `C[C@H](Nc1cc(-c2cnc(NC(=O)C3CC3)cn2)ccc1C#N)C(=O)N1CC(O)C1` [Example 11, (S)-N-(5-(4-cyano-3-((1-(3-hydroxyazetidin-1-yl)-1-oxopropan-2-yl)amino)phenyl)pyrazin-2-yl)cyclopropanecarboxamide] is 6.7.
The figure for `CCN(C)C(=O)[C@H](C)Nc1cc(-c2cnc(NC(=O)C3CC3)cn2)ccc1C#N` [Example 12, (S)-N-(5-(4-cyano-3-((1-(ethyl(methyl)amino)-1-oxopropan-2-yl)amino)phenyl)pyrazin-2-yl)cyclopropanecarboxamide] is 8.0; for `C[C@H](Nc1cc(-c2cnc(NC(=O)C3CC3)cn2)ccc1C#N)C(=O)NCCO` [Example 13, (S)-N-(5-(4-cyano-3-((1-((2-hydroxyethyl)amino)-1-oxopropan-2-yl)amino)phenyl)pyrazin-2-yl)cyclopropanecarboxamide] it is 6.3.
Take `CC(C)NC(=O)[C@H](C)Nc1cc(-c2cnc(NC(=O)C3CC3)cn2)ccc1C#N` [Example 14, (S)-N-(5-(4-cyano-3-((1-(isopropylamino)-1-oxopropan-2-yl)amino)phenyl)pyrazin-2-yl)cyclopropanecarboxamide]: the “TBK1 Inhibition (pIC50)” value came to 6.9.

Values taken from patent publication US9994547B2, “Heteroarylamide inhibitors of TBK1” (Takeda Pharmaceutical Company Limited, priority 2014, dated 2018).
